Test results from patent publication US20110152267A1, “Compositions and Methods for Treating Hyperproliferative Disorders” (Texas Tech University System, priority 2009, published 2011).

Columns and labels:
Assay type in all cases: cell-based, human
[1] = test system: A-549 lung adenocarcinoma cell line; assay: DIMSCAN cytotoxicity, fenretinide + L-threo-sphinganines 3:1 (Example B13); conditions: 96 h
Description: (§1) Cytotoxicity Assay—Once again, cytotoxicity is determined using the DIMSCAN assay system (R. Proffitt et al., Cytometry 24, 204-213 (1996); T. Frgala et al., Mol Cancer Ther. 6:886-97, 2007). The system employs digital imaging microscopy to quantify viable cells, which selectively accumulate fluorescein diacetate to become brightly fluorescent. The system is capable of measuring cytotoxicity over a 4-5 log dynamic range by quenching the residual fluorescence of dead and dying cells with eosin Y and quantifying the total fluorescence of viable cells using digital thresholding. Measured fluorescence is directly proportionate to the number of viable cells. A comparison of the total fluorescence of a drug-treated cell population to the fluorescence of a similar number of untreated cells yields a survival fraction. In brief, 2000 to 10,000 cells/well (depending on size and growth rates) are replicate plated into 60 wells of a 96-well tissue culture plate in 0.1 mL of whole medium and allowed to attach overnight. Drug(s) are then added in 0.05 mL of whole medium to the final concentrations indicated. Drugs (fenretinide, and various chain length L-threo-sphinganines) were tested both as single agents and in a 3:1 ratio of fenretinide:sphinganine. C18-L-threo-sphinganine, or “safingol,” was also tested and results shown for reference. There are 12 wells treated per drug concentration. Twelve wells receive drug vehicle-only to the appropriate final concentration and serve as controls for the plate. Cells are incubated for 96 hours at 37° C. in ambient air with 5% CO2. Fluorescein diacetate is then added to each well in 0.05 mL media to a final concentration of 8 microgram/mL. Cells are incubated for a further 15 minutes at 37° C. and 0.03 mL of 0.5% eosin Y is added to each well. Total fluorescence of viable cells is then measured by digital imaging microscopy. Results were graphed as the ratio of the fluoresecence of drug-treated wells to non-drug treated control wells (i.e., Survival Fraction). All tests were performed at least twice. Representative results are shown.
(§2) The Combination Index (CI) is a term to describe mathematical modeling of the pharmacologic effects on cytotoxicity (cell death) of two drugs in combination based. Cytotoxic “synergy” is defined as a cell death affect which is greater than would be expected from a simple product of the single agent cytotoxicities alone (i.e. an “additive” effect). By Chou-Talalay analysis, a CI<0.9 on a Fraction Affected (“Fa”, i.e. fraction of cells killed) indicates synergy, with smaller numbers indicating greater synergy; a CI of 0.9-1.1 signifies an additive or near-additive effect; and a CI>1.1 means the drug combination is antagonistic.
Fenretinide and L-threo-sphinganines tested in human lung adenocarcinoma (lung cancer) cell line, A-549.

[2] = test system: PANC-1 pancreatic adenocarcinoma cell line; assay: DIMSCAN cytotoxicity, fenretinide + L-threo-sphinganines 3:1 (Example B18)
Description: as §1, §2
Fenretinide and L-threo-sphinganines tested in human pancreatic adenocarcinoma (pancreas cancer) cell line, PANC-1.

[3] = test system: OVCAR-8 ovarian adenocarcinoma cell line; assay: DIMSCAN cytotoxicity, fenretinide + L-threo-sphinganines 3:1 (Example B15); design: key to CI (Combination Index): Chou-Talalay CI: <0.9 synergy, 0.9-1.1 additive, >1.1 antagonism; conditions: 96 h
Description: as §1, §2
Fenretinide and L-threo-sphinganines tested in human ovarian adenocarcinoma (ovarian cancer) cell line, OVCAR-8.

[4] = test system: SJ-GBM2 Glioblastoma multiforme cell line; assay: DIMSCAN cytotoxicity, fenretinide + L-threo-sphinganines 3:1 (Example B7); design: key to CI (Combination Index): Chou-Talalay CI: <0.9 synergy, 0.9-1.1 additive, >1.1 antagonism; conditions: 96 h
Description: as §1, §2
Fenretinide and L-threo-sphinganines tested in human Glioblastoma multiforme (brain cancer) cell line, SJ-GBM2.

[5] = test system: U-266 Multiple Myeloma cell line; assay: DIMSCAN cytotoxicity, fenretinide + L-threo-sphinganines 3:1 (Example B3); conditions: 96 h
Description: as §1, §2
Fenretinide and L-threo-sphinganines tested in human Multiple Myeloma (a cancer of the blood and bone marrow) cell line, U-266.

[6] = test system: HT-29 colorectal adenocarcinoma cell line; assay: DIMSCAN cytotoxicity, fenretinide + L-threo-sphinganines 3:1 (Example B10); conditions: 96 h
Description: as §1, §2
Fenretinide and L-threo-sphinganines tested in human colorectal adenocarcinoma (colon cancer) cell line, HT-29.

[7] = test system: A-2058 melanoma cell line; assay: DIMSCAN cytotoxicity, fenretinide + L-threo-sphinganines 3:1 (Example B11); conditions: 96 h
Description: as §1, §2
Fenretinide and L-threo-sphinganines tested in human melanoma (skin cancer) cell line, A-2058.

[8] = test system: PC-3 prostate adenocarcinoma cell line; assay: DIMSCAN cytotoxicity, fenretinide + L-threo-sphinganines 3:1 (Example B17)
Description: as §1, §2
Fenretinide and L-threo-sphinganines tested in human prostate adenocarcinoma (prostate cancer) cell line, PC-3.

[9] = 4-HPR 1.5 μM + L-threo-sphinganine 0.5 μM
[10] = 4-HPR 3 μM + L-threo-sphinganine 1 μM
[11] = 4-HPR 6 μM + L-threo-sphinganine 2 μM
[12] = 4-HPR 9 μM + L-threo-sphinganine 3 μM

## CCCCCCCCCCC[C@H](O)[C@@H](N)CO [C14]
[1]; [9]
  CI (Combination Index): 1
  Fa (fraction affected): 0.01
[1]; [10]
  CI (Combination Index): 1.0
  Fa (fraction affected): 0.02
[1]; [11]
  CI (Combination Index): 1.1
  Fa (fraction affected): 0.072
[1]; [12]
  CI (Combination Index): 0.5
  Fa (fraction affected): 0.461
[2]; [9]
  CI: 3.2
  Fa: 0.054
[2]; [10]
  CI: 2.6
  Fa: 0.176
[2]; [11]
  CI: 2.1
  Fa: 0.450
[2]; [12]
  CI: 0.7
  Fa: 0.883
[3]; [9]
  CI (Combination Index): 0.1
  Fa (fraction affected): 0.696
[3]; [10]
  CI (Combination Index): 0.1
  Fa (fraction affected): 0.860
[3]; [11]
  CI (Combination Index): 0.1
  Fa (fraction affected): 0.978
[3]; [12]
  CI (Combination Index): 0.1
  Fa (fraction affected): 0.988
[4]; [9]
  CI (Combination Index): 5.0
  Fa (fraction affected): 0.007
[4]; [10]
  CI (Combination Index): 1.2
  Fa (fraction affected): 0.209
[4]; [11]
  CI (Combination Index): 1.2
  Fa (fraction affected): 0.598
[4]; [12]
  CI (Combination Index): 1.4
  Fa (fraction affected): 0.820
[5]; [9]
  CI (Combination Index): 0.9
  Fa (fraction affected): 0.163
[5]; [10]
  CI (Combination Index): 1.1
  Fa (fraction affected): 0.315
[5]; [11]
  CI (Combination Index): 1.0
  Fa (fraction affected): 0.687
[5]; [12]
  CI (Combination Index): 1.3
  Fa (fraction affected): 0.76
[6]; [9]
  CI (Combination Index): 1.0
  Fa (fraction affected): 0.215
[6]; [10]
  CI (Combination Index): 1.3
  Fa (fraction affected): 0.598
[6]; [11]
  CI (Combination Index): 1.8
  Fa (fraction affected): 0.822
[6]; [12]
  CI (Combination Index): 1.4
  Fa (fraction affected): 0.982
[7]; [9]
  CI (Combination Index): 1.1
  Fa (fraction affected): 0.045
[7]; [10]
  CI (Combination Index): 1.2
  Fa (fraction affected): 0.088
[7]; [11]
  CI (Combination Index): 1.4
  Fa (fraction affected): 0.193
[7]; [12]
  CI (Combination Index): 1.3
  Fa (fraction affected): 0.650
[8]; [9]
  CI: 0.7
  Fa: 0.192
[8]; [10]
  CI: 1.0
  Fa: 0.283
[8]; [11]
  CI: 1.3
  Fa: 0.426
[8]; [12]
  CI: 1.2
  Fa: 0.634

## CCCCCCCCC[C@H](O)[C@@H](N)CO [C12]
[1]; [9]
  CI (Combination Index): 2.5
  Fa (fraction affected): 0.01
[1]; [10]
  CI (Combination Index): 1.0
  Fa (fraction affected): 0.010
[1]; [11]
  CI (Combination Index): 1.0
  Fa (fraction affected): 0.010
[1]; [12]
  CI (Combination Index): 1.0
  Fa (fraction affected): 0.020
[2]; [9]
  CI: 0.9
  Fa: 0.232
[2]; [10]
  CI: 3.1
  Fa: 0.119
[2]; [11]
  CI: 0.7
  Fa: 0.757
[2]; [12]
  CI: 0.2
  Fa: 0.977
[3]; [9]
  CI (Combination Index): 0.3
  Fa (fraction affected): 0.382
[3]; [10]
  CI (Combination Index): 0.5
  Fa (fraction affected): 0.445
[3]; [11]
  CI (Combination Index): 0.6
  Fa (fraction affected): 0.634
[3]; [12]
  CI (Combination Index): 0.8
  Fa (fraction affected): 0.704
[4]; [9]
  CI (Combination Index): 0.5
  Fa (fraction affected): 0.133
[4]; [10]
  CI (Combination Index): 0.7
  Fa (fraction affected): 0.271
[4]; [11]
  CI (Combination Index): 0.7
  Fa (fraction affected): 0.930
[4]; [12]
  CI (Combination Index): 0.9
  Fa (fraction affected): 0.968
[5]; [9]
  CI (Combination Index): 0.8
  Fa (fraction affected): 0.176
[5]; [10]
  CI (Combination Index): 0.9
  Fa (fraction affected): 0.326
[5]; [11]
  CI (Combination Index): 0.9
  Fa (fraction affected): 0.697
[5]; [12]
  CI (Combination Index): 1.2
  Fa (fraction affected): 0.748
[6]; [9]
  CI (Combination Index): 1.0
  Fa (fraction affected): 0.217
[6]; [10]
  CI (Combination Index): 1.2
  Fa (fraction affected): 0.642
[6]; [11]
  CI (Combination Index): 1.3
  Fa (fraction affected): 0.951
[6]; [12]
  CI (Combination Index): 1.6
  Fa (fraction affected): 0.975
[7]; [9]
  CI (Combination Index): 0.3
  Fa (fraction affected): 0.244
[7]; [10]
  CI (Combination Index): 0.6
  Fa (fraction affected): 0.247
[7]; [11]
  CI (Combination Index): 0.9
  Fa (fraction affected): 0.518
[7]; [12]
  CI (Combination Index): 1.0
  Fa (fraction affected): 0.854
[8]; [9]
  CI: 0.5
  Fa: 0.245
[8]; [10]
  CI: 0.8
  Fa: 0.328
[8]; [11]
  CI: 0.9
  Fa: 0.526
[8]; [12]
  CI: 0.8
  Fa: 0.721
